# From ChEMBL document CHEMBL1133767, “Novel nonsubstrate inhibitors of human thymidine phosphorylase, a potential target for tumor-dependent angiogenesis” (J Med Chem, 2000)
# Tests used:
# Thymidine phosphorylase [1] = molecular target: T1, Thymidine phosphorylase (Homo sapiens, UniProt P19971); assay: Inhibition of catabolic activity of human thymidine phosphorylase
# T1 sequence (P19971 whole entry): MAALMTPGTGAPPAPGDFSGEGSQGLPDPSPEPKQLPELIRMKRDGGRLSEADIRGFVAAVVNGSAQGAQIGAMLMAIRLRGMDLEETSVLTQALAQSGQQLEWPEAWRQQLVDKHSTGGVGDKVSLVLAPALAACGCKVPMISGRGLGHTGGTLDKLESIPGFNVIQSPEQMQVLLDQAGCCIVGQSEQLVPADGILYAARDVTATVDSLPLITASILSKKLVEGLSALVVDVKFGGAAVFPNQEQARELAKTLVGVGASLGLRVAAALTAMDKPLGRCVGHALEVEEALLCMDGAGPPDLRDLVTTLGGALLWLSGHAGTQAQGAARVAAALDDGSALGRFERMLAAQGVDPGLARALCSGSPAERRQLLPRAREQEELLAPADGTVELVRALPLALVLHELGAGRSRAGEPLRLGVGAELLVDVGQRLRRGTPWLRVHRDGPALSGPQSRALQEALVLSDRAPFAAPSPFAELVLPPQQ
# Thymidine phosphorylase [2] = molecular target: T1, Thymidine phosphorylase; assay: Inhibition of anabolic activity of human thymidine phosphorylase
# [3] = molecular target: T2, Thymidine phosphorylase (Homo sapiens) (UniProt P19971); assay: Percent inhibition by compound was measured on Human Thymidine Phosphorylase using 100 uM thymine
# T2 sequence (whole entry): T1 sequence (P19971 whole entry)
IC50 (Thymidine phosphorylase [1]),IC50 (Thymidine phosphorylase [2]),inhibition [3],SMILES
> 200 µM,,,O=c1cc(NCc2ccccc2)[nH]c(=O)[nH]1
148 µM,200 µM,,Oc1cc(NCCc2ccccc2)nc(O)n1
,,41%,Nc1cc(O)nc(O)n1
